Reference: patent publication US11098063B2, “Diazabicyclic substituted imidazopyrimidines and their use for the treatment of breathing disorders” (Bayer Aktiengesellschaft, priority 2017, dated 2021)

Key:
human TASK-1 = human TASK-1 (Homo sapiens (Human), UniProt O14649); experiment: Inhibition of recombinant TASK-1 in stably transfected CHO cells (voltage-sensitive dye, KCl depolarization); assay type: cell-based; conditions: depolarization by 40 mM potassium chloride
Description: (§1) B-2. Inhibition of Recombinant TASK-1 and TASK-3 In Vitro
(§2) The investigations on the inhibition of the recombinant TASK-1 and TASK-3 channels were conducted using stably transfected CHO cells. The compounds according to the invention were tested in this case by application of 40 mM potassium chloride in the presence of a voltage-sensitive dye according to the method described in detail in the following references [Whiteaker et al., Validation of FLIPR membrane potential dye for high-throughput screening of potassium channel modulators, J. Biomol. Screen. 6 (5), 305-312 (2001); Molecular Devices FLIPR Application Note: Measuring membrane potential using the FLIPR® membrane potential assay kit on Fluorometric Imaging Plate Reader (FLIPR®) systems, http://www.moleculardevices.com/reagents-supplies/assay-kits/ion-channels/flipr-membrane-potential-assay-kits]. The activity of the test substances was determined as their ability to inhibit a depolarization induced in the recombinant cells by 40 mM potassium chloride. The concentration which can block half of this depolarization is referred to as IC50.

human TASK-3 = human TASK-3 (Homo sapiens (Human), UniProt Q9NPC2); experiment: Inhibition of recombinant TASK-3 in stably transfected CHO cells (voltage-sensitive dye, KCl depolarization); assay type: cell-based; conditions: depolarization by 40 mM potassium chloride
Description: as §1, §2

Chain of human TASK-1 (O14649 whole entry): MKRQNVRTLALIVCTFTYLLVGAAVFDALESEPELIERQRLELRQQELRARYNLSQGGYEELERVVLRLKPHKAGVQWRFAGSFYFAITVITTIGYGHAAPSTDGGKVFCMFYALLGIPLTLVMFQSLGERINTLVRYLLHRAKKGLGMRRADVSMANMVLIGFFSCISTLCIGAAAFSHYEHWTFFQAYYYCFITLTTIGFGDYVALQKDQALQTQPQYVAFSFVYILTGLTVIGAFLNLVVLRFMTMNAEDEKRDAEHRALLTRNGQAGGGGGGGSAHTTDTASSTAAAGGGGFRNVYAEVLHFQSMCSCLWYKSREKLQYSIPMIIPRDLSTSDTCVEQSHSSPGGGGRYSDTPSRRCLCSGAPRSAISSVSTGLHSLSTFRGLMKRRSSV
Chain of human TASK-3 (Q9NPC2 whole entry): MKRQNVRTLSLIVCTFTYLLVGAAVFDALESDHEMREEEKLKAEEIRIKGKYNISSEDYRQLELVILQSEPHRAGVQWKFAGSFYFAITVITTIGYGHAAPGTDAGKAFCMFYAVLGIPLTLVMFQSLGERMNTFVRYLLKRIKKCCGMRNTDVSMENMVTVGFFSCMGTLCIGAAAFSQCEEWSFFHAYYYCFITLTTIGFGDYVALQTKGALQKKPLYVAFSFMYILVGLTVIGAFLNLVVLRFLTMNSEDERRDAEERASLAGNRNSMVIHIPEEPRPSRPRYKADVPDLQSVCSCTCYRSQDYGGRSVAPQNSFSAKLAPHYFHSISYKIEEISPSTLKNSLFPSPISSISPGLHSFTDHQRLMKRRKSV

| Compound | IC50 (human TASK-1) | IC50 (human TASK-3) |
| --- | --- | --- |
| CC(c1c(-c2ccc(Cl)cc2)nc2ncccn12)N1CC2CCC(C1)N2C(=O)OC(C)(C)C (racemic) [Example 10, tert-Butyl 3-{1-[2-(4-chlorophenyl)imidazo[1,2-a]pyrimidin-3-yl]ethyl}-3,8-diazabicyclo[3.2.1]octane-8-carboxylate] | 2.2 µM | 130 nM |
| O=C(Nc1cccc(Cl)c1Cl)N1C2CCC1CN(Cc1c(-c3ccc(Cl)cc3)nc3ncccn13)C2 [Example 94, 3-{[2-(4-chlorophenyl)imidazo[1,2-a]pyrimidin-3-yl]methyl}-N-(2,3-dichlorophenyl)-3,8-diazabicyclo[3.2.1]octane-8-carboxamide] | 30 µM | 160 nM |
| COc1ccc(F)c(C(=O)N2CC3CCC2CN3Cc2c(-c3ccc(Cl)cc3)nc3ncccn23)n1 (single isomer, unassigned) [Example 24, (5-{[2-(4-Chlorophenyl)imidazo[1,2-a]pyrimidin-3-yl]methyl}-2,5-diazabicyclo[2.2.2]oct-2-yl)(3-fluoro-6-methoxypyridin-2-yl)methanone] | 0.41 µM | 102 nM |
| COc1cccc(CN(C)C(=O)N2C3CCC2CN(Cc2c(-c4ccc(Cl)cc4)nc4ncccn24)C3)c1 [Example 121, 3-{[2-(4-chlorophenyl)imidazo[1,2-a]pyrimidin-3-yl]methyl}-N-(3-methoxybenzyl)-N-methyl-3,8-diazabicyclo[3.2.1]octane-8-carboxamide] | 12 µM | 120 nM |
| CC(C)c1ccc(-c2nc3ncccn3c2CN2CC3COCC(C2)N3C(=O)c2ccccc2F)cc1 [Example 68] | 9.4 µM | 87 nM |
| CC(C)c1ccc(-c2nc3ncccn3c2CN2CC3CCC2CN3C(=O)c2cccc(OC(F)F)n2)cc1 (centres unmarked) [Example 75] | 3.8 µM | 51 nM |
| CCN(CC)C(=O)N1C2CCC1CN(Cc1c(-c3ccc(Cl)cc3)nc3ncccn13)C2 [Example 109, 3-{[2-(4-chlorophenyl)imidazo[1,2-a]pyrimidin-3-yl]methyl}-N,N-diethyl-3,8-diazabicyclo[3.2.1]octane-8-carboxamide] | 0.024 µM | 1.5 nM |
| CC(C)N(C(=O)N1C2CCC1CN(Cc1c(-c3ccc(Cl)cc3)nc3ncccn13)C2)c1ccc(Cl)cc1 [Example 118, N-(4-chlorophenyl)-3-{[2-(4-chlorophenyl)imidazo[1,2-a]pyrimidin-3-yl]methyl}-N-isopropyl-3,8-diazabicyclo[3.2.1]octane-8-carboxamide] | 19 µM | 220 nM |
| Cc1cccc(C)c1NC(=O)N1C2CCC1CN(Cc1c(-c3ccc(Cl)cc3)nc3ncccn13)C2 [Example 92, 3-{[2-(4-chlorophenyl)imidazo[1,2-a]pyrimidin-3-yl]methyl}-N-(2,6-dimethylphenyl)-3,8-diazabicyclo[3.2.1]octane-8-carboxamide] | 15 µM | 270 nM |
| O=C(OC1CCCC1)N1C2CCC1CN(Cc1c(-c3ccc(Cl)cc3)nc3ncccn13)C2 [Example 125, cyclopentyl 3-{[2-(4-chlorophenyl)imidazo[1,2-a]pyrimidin-3-yl]methyl}-3,8-diazabicyclo[3.2.1]octane-8-carboxylate] | 0.23 µM | 27 nM |
| O=C(N1CCOCC1)N1C2CCC1CN(Cc1c(-c3ccc(Cl)cc3)nc3ncccn13)C2 [Example 110, (3-{[2-(4-chlorophenyl)imidazo[1,2-a]pyrimidin-3-yl]methyl}-3,8-diazabicyclo[3.2.1]oct-8-yl)(morpholin-4-yl)methanone] | 13 µM | 230 nM |
| CC(C)c1ccc(-c2nc3ncccn3c2CN2CC3CCC(C2)N3C(=O)OC(C)(C)C)cc1 [Example 130, tert-Butyl 3-{[2-(4-isopropylphenyl)imidazo[1,2-a]pyrimidin-3-yl]methyl}-3,8-diazabicyclo[3.2.1]octane-8-carboxylate] | 1.7 µM | 210 nM |
| COc1cccc(C(=O)N2CC3CCC2CN3Cc2c(-c3ccc(Cl)cc3)nc3ncccn23)n1 (centres unmarked) [Example 40] | 5.7 µM | 210 nM |
